Test results taken from patent US12667605B2, “Pharmaceutical composition for oral administration of a GLP-1 receptor agonist” (priority 2021, dated 2026).

Tests used:
Assay type in all cases: in vitro ADME
[1] = biological target: T1, pepsin (Sus scrofa, UniProt P00791); assay: Protection of semaglutide under gastric conditions reproduced in vitro, with pepsin (Example 2, UHPLC-UV); conditions: for Semaglutide residual content (%): simulated gastric medium at pH 1.2 with pepsin (3.2 mg/ml), 0.05 mg/ml semaglutide, 37° C.
T1 sequence (P00791 60-385): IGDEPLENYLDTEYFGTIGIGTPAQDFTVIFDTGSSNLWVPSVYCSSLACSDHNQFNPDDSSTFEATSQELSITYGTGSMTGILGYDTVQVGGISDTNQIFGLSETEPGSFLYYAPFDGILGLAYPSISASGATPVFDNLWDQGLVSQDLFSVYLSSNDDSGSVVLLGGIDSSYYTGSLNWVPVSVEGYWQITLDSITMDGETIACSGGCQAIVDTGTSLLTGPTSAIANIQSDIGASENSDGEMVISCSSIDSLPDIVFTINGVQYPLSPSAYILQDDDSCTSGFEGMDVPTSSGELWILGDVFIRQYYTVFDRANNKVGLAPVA
Procedure: (§1) The purpose of this test is to show the gastric stability of semaglutide in a composition according to the invention. • Step 1) The tablet obtained in Example 1A was dissolved in 50 mL of drinking water in order to obtain a buffered solution. • Step 2) The simulated gastric medium was prepared with hydrochloric acid (0.2 N HCl), adjusting the pH to 1.2. • Step 3) The buffered solution obtained in step 1) was mixed with 50 ml of simulated gastric medium, in order to obtain a final solution of 100 ml with 0.1 N HCL. • Step 4) Semaglutide was added to the solution obtained in step 3), in is order to obtain a final concentration of semaglutide of 0.05 mg/ml. • Step 5) Pepsin was added to the solution obtained in step 4) at a final concentration of 3.2 mg/ml or without addition of pepsin (without pepsin), and the solution obtained was kept under constant stirring at 37° C. for 2 hours.
(§2) The semaglutide assay was performed by ultra-high performance liquid chromatography (UHPLC) coupled to an ultraviolet (UV) detector using an external standard calibration. The residual semaglutide content was calculated by measuring the semaglutide content at time t relative to the initial semaglutide content. The result is a ratio expressed in percent (%). The residual content of semaglutide corresponds to the protection percentage of semaglutide.

[2] = biological target: T1, pepsin; assay: Protection of semaglutide compared to Rybelsus under gastric conditions reproduced in vitro, with pepsin (Example 4, HPLC); conditions: buffered solution; simulated gastric medium pH 1.2 with pepsin (3.2 mg/mL); 0.05 mg/ml of semaglutide; T = 2 h; 37° C.
Procedure: (§3) The gastro-resistance tests with semaglutide were carried out at a concentration of 0.05 mg/mL (5 mg of semaglutide in final 100 mL). The simulated gastric medium was prepared following the same protocol as that described in Example 3.
(§4) The product Rybelsus® comprises Semaglutide, Sodium Salcaprozate (SNAC), Povidone, Microcrystalline Cellulose, and Magnesium Stearate. • Step 1) A 14 mg Rybelsus® tablet was used for the comparative tests and was dissolved in 50 mL of drinking water for thirty minutes with stirring. The final semaglutide concentration was 0.28 mg/mL. • Step 2) An effervescent tablet (according to Example 1A) was added or not to the solution obtained in step 1. After cessation of effervescence, 50 ml of 0.2 N HCL at pH 1.2 were added to obtain a final solution of 100 ml of 0.1 N HCL, which corresponds to the simulated gastric environment. The final concentration of semaglutide is 14 mg per 100 mL. • Step 3) The pepsin was then added or not to the solution obtained in step 2, at the conventional dose of 3.2 mg/ml. The test was carried out for 2 hours at a temperature of 37° C.
The semaglutide content was specifically assayed by high performance liquid chromatography (HPLC). The residual content was calculated by measuring the semaglutide content at time t relative to the initial semaglutide content. The result is a ratio expressed in percent (%). […]

[3] = Stability of semaglutide compared to Rybelsus in simulated gastric medium pH 1.2 without pepsin (Example 4, HPLC); conditions: for Residual semaglutide content in percent (%): buffered solution, simulated gastric medium pH 1.2 without pepsin, 0.05 mg/mL of semaglutide, 37° C.
Procedure: as §3, §4
The semaglutide content was specifically assayed by high performance liquid chromatography (HPLC). The residual content was calculated by measuring the semaglutide content at time t relative to the initial semaglutide content. The result is a ratio expressed in percent (%). The residual content of semaglutide corresponds to the percentage of protection of the semaglutide.

[4] = Stability of semaglutide in simulated gastric medium at pH 1.2 without pepsin (Example 2, UHPLC-UV); conditions: for Semaglutide residual content (%): simulated gastric medium at pH 1.2 without pepsin, 0.05 mg/ml semaglutide, 37° C.
Procedure: as §1, §2

CC[C@H](C)[C@H](NC(=O)[C@H](Cc1ccccc1)NC(=O)[C@H](CCC(=O)O)NC(=O)[C@H](CCCCNC(=O)COCCOCCNC(=O)COCCOCCNC(=O)CC[C@H](NC(=O)CCCCCCCCCCCCCCCCC(=O)O)C(=O)O)NC(=O)[C@H](C)NC(=O)[C@H](C)NC(=O)[C@H](CCC(N)=O)NC(=O)CNC(=O)[C@H](CCC(=O)O)NC(=O)[C@H](CC(C)C)NC(=O)[C@H](Cc1ccc(O)cc1)NC(=O)[C@H](CO)NC(=O)[C@H](CO)NC(=O)[C@@H](NC(=O)[C@H](CC(=O)O)NC(=O)[C@H](CO)NC(=O)[C@@H](NC(=O)[C@H](Cc1ccccc1)NC(=O)[C@@H](NC(=O)CNC(=O)[C@H](CCC(=O)O)NC(=O)C(C)(C)NC(=O)[C@@H](N)Cc1cnc[nH]1)[C@@H](C)O)[C@@H](C)O)C(C)C)C(=O)N[C@@H](C)C(=O)N[C@@H](Cc1c[nH]c2ccccc12)C(=O)N[C@@H](CC(C)C)C(=O)N[C@H](C(=O)N[C@@H](CCCNC(=N)N)C(=O)NCC(=O)N[C@@H](CCCNC(=N)N)C(=O)NCC(=O)O)C(C)C [semaglutide]
residual content ([1]; acid medium with pepsin and without a buffer system, time not given): 0% | Semaglutide residual content (%) ([1]; with the buffered solution (Example 1A tablet)): 104.6% | Semaglutide residual content (%) ([1]; without buffer system): 0% | Residual semaglutide content in percent (%) [2]: 105.2% | Residual semaglutide content in percent (%) ([3]; T = 1 h): 103.5% | Residual semaglutide content in percent (%) ([3]; T = 2 h): 104.1% | stability of semaglutide (in words) ([3]; in the absence of pepsin, in the presence of the buffer system): stable | degradation of semaglutide (in words) ([4]; formulated with a buffer system, after 2 hours, without pepsin): not degraded | Semaglutide residual content (%) ([4]; with the buffered solution (Example 1A tablet), T 0 h): 103.5% | Semaglutide residual content (%) ([4]; with the buffered solution (Example 1A tablet), T 2 h): 104.1% | Semaglutide residual content (%) ([4]; without buffer system, T 0 h): 100%
